Results: ChEMBL document CHEMBL5030558, “Optimization and Evaluation of Novel Antifungal Agents for the Treatment of Fungal Infection” (J Med Chem, 2021)
≈ marks a conversion by molar mass, not a printed value.

Key:
Cryptococcus neoformans = assay: Antifungal activity against Cryptococcus neoformans H99 assessed as reduction in fungal growth incubated for 72 hrs by CLSI based broth microdilution method; type: functional
Candida albicans = assay: Antifungal activity against Candida albicans ATCC SC5314 assessed as reduction in fungal growth incubated for 48 hrs by CLSI based broth microdilution method; type: functional
Nakaseomyces glabratus = assay: Antifungal activity against Candida glabrata BG2 assessed as reduction in fungal growth incubated for 48 hrs by CLSI based broth microdilution method; type: functional
Aspergillus fumigatus = assay: Antifungal activity against Aspergillus fumigatus AF293 assessed as reduction in fungal growth incubated for 48 hrs by CLSI based broth microdilution method; type: functional
[1] = Stability in human liver microsomes assessed as parent compound remaining after 30 mins; type: ADME, Microsome; details: read-out: Stability

SMILES	MIC (Cryptococcus neoformans)	MIC (Candida albicans)	MIC (Nakaseomyces glabratus)	MIC (Aspergillus fumigatus)	remaining at 0.5 h [1]
CC(C)(NCCc1ccc(OCc2cccc(F)c2)cc1)C(N)=O.CS(=O)(=O)O	128 mg/L	> 128 mg/L	> 128 mg/L	> 128 mg/L	
Nc1ncccc1C(=O)NCCc1ccc(-c2ccc(Cl)c(Cl)c2)cc1	128 mg/L (≈ 331 µM)	128 mg/L (≈ 331 µM)	128 mg/L (≈ 331 µM)	128 mg/L (≈ 331 µM)	
CC(C)(NCCc1ccc(OCc2cccc(C(F)(F)F)c2)cc1)C(N)=O.CS(=O)(=O)O	64 mg/L	128 mg/L	128 mg/L	128 mg/L	
O=C(NCCc1ccc(-c2ccc(Cl)c(Cl)c2)cc1)c1cccnc1	128 mg/L (≈ 345 µM)	128 mg/L (≈ 345 µM)	128 mg/L (≈ 345 µM)	128 mg/L (≈ 345 µM)	
CC(C)(NCCc1ccc(OCc2ccc(C(F)(F)F)cc2)cc1)C(N)=O.CS(=O)(=O)O	64 mg/L	128 mg/L	128 mg/L	128 mg/L	
CC(NCCc1ccc(OCc2ccccc2F)cc1)C(N)=O.CS(=O)(=O)O (centres undefined)	128 mg/L	> 128 mg/L	> 128 mg/L	> 128 mg/L	
Cl.O=C(NCCc1ccc(-c2ccc(Cl)c(Cl)c2)cc1)C1CCCN1 (centres undefined)	8 mg/L	16 mg/L	16 mg/L	16 mg/L	
CCC(N)C(=O)NCCc1ccc(-c2ccc(F)c(F)c2)cc1.Cl (racemic)	64 mg/L	32 mg/L	64 mg/L	64 mg/L	
CC(NCCc1ccc(OCc2ccc(F)cc2)cc1)C(N)=O.CS(=O)(=O)O (racemic)	128 mg/L	> 128 mg/L	> 128 mg/L	> 128 mg/L	
CCC(NC)C(=O)NCCc1ccc(-c2ccc(C(F)(F)F)cc2)cc1.Cl (racemic)	16 mg/L	32 mg/L	64 mg/L	64 mg/L	
CCC(N)C(=O)NCCc1ccc(-c2ccc(OC(F)(F)F)cc2)cc1.Cl (racemic)	16 mg/L	16 mg/L	16 mg/L	32 mg/L	
CC(NCCc1ccc(OCc2ccc(Cl)cc2)cc1)C(N)=O.CS(=O)(=O)O (racemic)	64 mg/L	> 128 mg/L	> 128 mg/L	> 128 mg/L	
CCCCC(NC)C(=O)NCCc1ccc(-c2ccc(OC(F)(F)F)cc2)cc1.Cl (racemic)	4 mg/L	16 mg/L	16 mg/L	8 mg/L	
CC(NCCc1ccc(Oc2ccc(Cl)c(Cl)c2)cc1)C(N)=O.CS(=O)(=O)O (racemic)	8 mg/L	32 mg/L	32 mg/L	32 mg/L	
CC(NCCc1ccc(OCc2ccc(C(F)(F)F)cc2)cc1)C(N)=O.CS(=O)(=O)O (racemic)	32 mg/L	128 mg/L	128 mg/L	64 mg/L	
CC(NCCc1ccc(OCc2cccc(Cl)c2)cc1)C(N)=O.CS(=O)(=O)O (racemic)	32 mg/L	128 mg/L	> 128 mg/L	128 mg/L	
CC(NCCc1ccc(-c2ccc(C(F)(F)F)cc2)cc1)C(N)=O.CS(=O)(=O)O (racemic)	32 mg/L	128 mg/L	64 mg/L	32 mg/L	
Cl.O=C(NCCc1ccc(-c2ccc(C(F)(F)F)cc2)cc1)C1CCNC1 (racemic)	64 mg/L	32 mg/L	64 mg/L	64 mg/L	
CCCCC(N)C(=O)NCCc1ccc(-c2ccc(OC(F)(F)F)cc2)cc1.Cl (racemic)	4 mg/L	8 mg/L	8 mg/L	8 mg/L	
CC(NCCc1ccc(-c2ccc(Cl)c(Cl)c2)cc1)C(N)=O.CS(=O)(=O)O (racemic)	8 mg/L	16 mg/L	16 mg/L	8 mg/L	
CC(NCCc1ccc(OCc2ccccc2C(F)(F)F)cc1)C(N)=O.CS(=O)(=O)O (racemic)	64 mg/L	> 128 mg/L	> 128 mg/L	64 mg/L	
CCCC(N)C(=O)NCCc1ccc(Oc2ccc(Cl)c(Cl)c2)cc1.Cl (racemic)	8 mg/L	16 mg/L	16 mg/L	16 mg/L	
CCC(N)C(=O)NCCc1ccc(-c2ccc(C(F)(F)F)cc2)cc1.Cl (racemic)	16 mg/L	16 mg/L	16 mg/L	32 mg/L	
CCCC(N)C(=O)NCCc1ccc(Oc2ccc(C(F)(F)F)cc2)cc1.Cl (racemic)	16 mg/L	32 mg/L	32 mg/L	32 mg/L	
CC(NCCc1ccc(OCc2ccc(Cl)cc2Cl)cc1)C(N)=O.CS(=O)(=O)O (racemic)	8 mg/L	32 mg/L	32 mg/L	32 mg/L	
CCCCC(N)C(=O)NCCc1ccc(-c2ccc(F)c(F)c2)cc1.Cl (racemic)	16 mg/L	16 mg/L	32 mg/L	32 mg/L	

SMILES	MIC (Cryptococcus neoformans)	MIC (Candida albicans)	MIC (Nakaseomyces glabratus)	MIC (Aspergillus fumigatus)	remaining at 0.5 h [1]
CCCCC(NC)C(=O)NCCc1ccc(-c2ccc(C(F)(F)F)cc2)cc1.Cl (racemic)	4 mg/L	16 mg/L	16 mg/L	16 mg/L	
CCCC(N)C(=O)NCCc1ccc(-c2ccc(F)c(F)c2)cc1.Cl (racemic)	32 mg/L	16 mg/L	64 mg/L	64 mg/L	> 85%
CCC(NC)C(=O)NCCc1ccc(-c2ccc(OC(F)(F)F)cc2)cc1.Cl (racemic)	16 mg/L	32 mg/L	32 mg/L	32 mg/L	
CC(NCCc1ccc(-c2cccc(OC(F)(F)F)c2)cc1)C(N)=O.CS(=O)(=O)O (racemic)	32 mg/L	> 128 mg/L	64 mg/L	16 mg/L	
CN1CCCCC1C(=O)NCCc1ccc(-c2ccc(Cl)c(Cl)c2)cc1 (racemic)	8 mg/L (≈ 20.4 µM)	128 mg/L (≈ 327 µM)	16 mg/L (≈ 40.9 µM)	16 mg/L (≈ 40.9 µM)	
CC(NCCc1ccc(Oc2ccc(C(F)(F)F)cc2)cc1)C(N)=O.CS(=O)(=O)O (racemic)	32 mg/L	128 mg/L	128 mg/L	64 mg/L	
CCCC(NC)C(=O)NCCc1ccc(OCc2ccc(C(F)(F)F)cc2)cc1.Cl (racemic)	16 mg/L	64 mg/L	64 mg/L	64 mg/L	
CCCC(NC)C(=O)NCCc1ccc(-c2ccc(OC(F)(F)F)cc2)cc1.Cl (racemic)	8 mg/L	32 mg/L	128 mg/L	16 mg/L	
CC(NCCc1ccc(OCc2ccccc2Cl)cc1)C(N)=O.CS(=O)(=O)O (racemic)	32 mg/L	> 128 mg/L	> 128 mg/L	128 mg/L	
CN1CCCC1C(=O)NCCc1ccc(-c2ccc(Cl)c(Cl)c2)cc1 (racemic)	8 mg/L (≈ 21.2 µM)	128 mg/L (≈ 339 µM)	16 mg/L (≈ 42.4 µM)	16 mg/L (≈ 42.4 µM)	
CCCCC(N)C(=O)NCCc1ccc(-c2ccc(C(F)(F)F)cc2)cc1.Cl (racemic)	4 mg/L	8 mg/L	8 mg/L	8 mg/L	
CCC(NC)C(=O)NCCc1ccc(-c2ccc(Cl)c(Cl)c2)cc1.Cl (racemic)	8 mg/L	16 mg/L	16 mg/L	16 mg/L	
CCCC(N)C(=O)NCCc1ccc(OCc2ccc(Cl)c(Cl)c2)cc1.Cl (racemic)	8 mg/L	8 mg/L	16 mg/L	16 mg/L	
CCC(N)C(=O)NCCc1ccc(-c2ccc(Cl)c(Cl)c2)cc1.Cl (racemic)	8 mg/L	8 mg/L	16 mg/L	16 mg/L	
CC(=O)N1CCC(C(=O)NCCc2ccc(-c3ccc(C(F)(F)F)cc3)cc2)C1 (racemic)	> 128 mg/L	> 128 mg/L	> 128 mg/L	> 128 mg/L	
Cl.O=C(NCCc1ccc(-c2ccc(C(F)(F)F)cc2)cc1)C1CCCN1 (racemic)	16 mg/L	32 mg/L	32 mg/L	32 mg/L	
COc1cccc(COc2ccc(CCNC(C)C(N)=O)cc2)c1.CS(=O)(=O)O (racemic)	128 mg/L	128 mg/L	> 128 mg/L	> 128 mg/L	
CC(NCCc1ccc(OCc2ccc(Cl)c(Cl)c2)cc1)C(N)=O.CS(=O)(=O)O (racemic)	8 mg/L	32 mg/L	32 mg/L	32 mg/L	
CCCC(NC)C(=O)NCCc1ccc(OCc2ccc(Cl)c(Cl)c2)cc1.Cl (racemic)	8 mg/L	32 mg/L	32 mg/L	32 mg/L	
CC(NCCc1ccc(-c2ccc(OC(F)(F)F)cc2)cc1)C(N)=O.CS(=O)(=O)O (racemic)	16 mg/L	36 mg/L	> 128 mg/L	> 128 mg/L	
Cl.O=C(NCCc1ccc(-c2ccc(Cl)c(Cl)c2)cc1)C1CCCCN1 (racemic)	8 mg/L	16 mg/L	16 mg/L	16 mg/L	
CC(=O)N1CCCC1C(=O)NCCc1ccc(-c2ccc(C(F)(F)F)cc2)cc1 (racemic)	> 128 mg/L	> 128 mg/L	> 128 mg/L	> 128 mg/L	
CC(NCCc1ccc(OCc2cccc(F)c2)cc1)C(N)=O.CS(=O)(=O)O (racemic)	64 mg/L	> 128 mg/L	> 128 mg/L	> 128 mg/L	
CCCC(N)C(=O)NCCc1ccc(-c2ccc(C(F)(F)F)cc2)cc1.Cl (racemic)	8 mg/L	8 mg/L	16 mg/L	16 mg/L	
CC(NCCc1ccc(OCc2cccc(C(F)(F)F)c2)cc1)C(N)=O.CS(=O)(=O)O (racemic)	32 mg/L	128 mg/L	128 mg/L	64 mg/L	
CCCC(N)C(=O)NCCc1ccc(-c2ccc(OC(F)(F)F)cc2)cc1.Cl (racemic)	4 mg/L	8 mg/L	16 mg/L	16 mg/L	
